Assay type in all cases: cell-based
For experiment [1], the system named is T47D (PI3Kα H1047R mutant) cells. Kind of experiment: Inhibition of pAKT formation, alphaLISA SureFire Ultra AKT 1/2/3 (pS473), T47D cells. The settings on record: Homo sapiens, T47D. The method, boiled down: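 T47D cells (12,000/well) in HBSS were dosed with compound at 10 concentrations (10.4 μM top, 1:4 dilutions) for about 1 h or 24 h at 37 °C, then lysed. pS473 AKT was read by alphaLISA. Signals were normalized to alpelisib and DMSO controls, and IC50 came from a four-parameter fit.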

Experiment [2] relates to MKN1 (PI3Kα E545K mutant) cells. Kind of experiment: Inhibition of pAKT formation, alphaLISA SureFire Ultra AKT 1/2/3 (pS473), MKN1 cells. The settings on record: Homo sapiens. The method, boiled down: (§1)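 Cells seeded in HBSS (SKBR3 12,000/well, MKN1 24,000/well) and dosed immediately, 10-point 1:4 series from […], for about 1 h or 24 h at 37 °C. pAKT S473 by alphaLISA after lysis; signal normalised to alpelisib and DMSO controls, IC50 by four-parameter fit.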

The subject of experiment [3] is SKBR3 (PI3Kα wild type) cells. The experiment in a line: Inhibition of pAKT formation, alphaLISA SureFire Ultra AKT 1/2/3 (pS473), SKBR3 cells. The conditions noted are these: Homo sapiens, SK-BR-3; Inhibition of pAKT in SKBR3 (PI3Kα wild type) cells; read-out: SKBR3 (WT) pAKT IC50 (nM) (H1047R mutant) IC50. The method, boiled down: as §1
In experiment [4] the test system is T47D (PI3Kα H1047R mutant) cells. The experiment in a line: CellTiter-Glo 2.0 luminescent cell viability assay, 72 hours, T47D cells. The settings on record: Homo sapiens, T47D, 72 h. The method, boiled down: (§2)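 Cells seeded at 1000 per well overnight were dosed with a 10-concentration, 1:4 series starting at 10 µM and incubated ~72 h at 37° C. Viability was read by CellTiter-Glo 2.0 luminescence after 30 min at room temperature. IC50 came from four-parameter fits of percent vehicle control.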

Experiment [5] has as its system MKN1 (PI3Kα E545K mutant) cells. Kind of experiment: CellTiter-Glo 2.0 luminescent cell viability assay, 72 hours, MKN1 cells. The conditions noted are these: Homo sapiens. The method, boiled down: as §2
For experiment [6], the system named is SKBR3 (PI3Kα wild type) cells. Kind of experiment: CellTiter-Glo 2.0 luminescent cell viability assay, 72 hours, SKBR3 cells. The settings on record: Homo sapiens, SK-BR-3, 72 h. The method, boiled down:
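Viability measured via CTG luminescence following roughly 72 hours of compound exposure at 37° C. Dosing used a 10 um starting concentration diluted 1:4 over 10 points; percent-of-vehicle data fitted with a variable-slope four-parameter model for IC50.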

Setting [7] is: T47D (PI3Kα H1047R mutant) cells, inhibition of pAKT (pS473) formation, approximately one hour or 24 hours treatment, read-out: T47D pAKT (H1047R mutant) IC50.
Where [8] appears, read: MKN-1, MKN1 (PI3Kα E545K mutant) cells, inhibition of pAKT (pS473) formation, approximately one hour or 24 hours treatment, read-out: MKN1 (E545K) pAKT IC50.
Where [9] appears, read: T47D (PI3Kα H1047R mutant) cells, CellTiter-Glo, approximately 72 hours, read-out: T47D (H1047R mutant) Viability IC50.
Where [10] appears, read: MKN-1, MKN1 (PI3Kα E545K mutant) cells, CellTiter-Glo, approximately 72 hours, read-out: MKN1 (E545K) Viability IC50.
[11] abbreviates: SKBR3 (PI3Kα wild type) cells, CellTiter-Glo, approximately 72 hours, read-out: SKBR3 (WT) Viability IC50.
The mark [12] stands for this setting: read-out: T47D pAKT (H1047R mutant) IC50 (nM).
Setting [13] is: MKN-1, read-out: MKN1 (E545K) pAKT IC50 (nM).
The mark [14] stands for this setting: read-out: T47D (H1047R mutant) Viability IC50 (nM).
Setting [15] is: MKN-1, 72 h, read-out: MKN1 (E545K) Viability IC50 (nM).
The mark [16] stands for this setting: read-out: SKBR3 (WT) Viability IC50 (nM).

Structures are written as SMILES. A value given as a limit tells only on which side of the number the result lay.

This is an account of results in US20260078120A1, “SUBSTITUTED PYRIDOPYRIMIDINONES” (MIRATI THERAPEUTICS, INC., priority 2022, published 2026).

As to `CCc1c(N2CCCCC2)nc2c(C(C)Nc3ccccc3C(=O)O)cc(C)cn2c1=O` (stereo not drawn) [Example 5-6, 2-((1-(3-ethyl-7-methyl-4-oxo-2-(piperidin-1-yl)-4H-pyrido[1,2-a]pyrimidin-9-yl)ethyl)amino)benzoic acid], the concentration for half-maximal inhibition (IC50) in experiment [1] (setting [7]) is 28.1 nM; in experiment [2] (setting [8]) it was 6520 nM; in experiment [3], 9050 nM; in experiment [4] (setting [9]), 3800 nM; in experiment [5] (setting [10]), above 10000 nM; in experiment [6] (setting [11]), above 10000 nM.

Regarding `CC(Nc1ccccc1C(=O)O)c1cc(C(F)F)cn2c(=O)cc(N3CCCCC3)nc12` (stereo not drawn) [Example 5-7, 2-((1-(7-(difluoromethyl)-4-oxo-2-(piperidin-1-yl)-4H-pyrido[1,2-a]pyrimidin-9-yl)ethyl)amino)benzoic acid], the IC50 in experiment [1] (setting [7]) is 34.1 nM; in experiment [2] (setting [8]), above 10000 nM; in experiment [3], above 10000 nM; in experiment [4] (setting [9]), 2630 nM; in experiment [5] (setting [10]), 3280 nM; in experiment [6] (setting [11]), 2950 nM.

Regarding `CCc1cc(C(C)Nc2ccccc2C(=O)O)c2nc(N3CCCCC3)cc(=O)n2c1` (stereo not drawn) [Example 5-8, 2-((1-(7-ethyl-4-oxo-2-(piperidin-1-yl)-4H-pyrido[1,2-a]pyrimidin-9-yl)ethyl)amino)benzoic acid], the IC50 in experiment [1] (setting [7]) was 17 nM; in experiment [2] (setting [8]), above 10000 nM; in experiment [3], above 10000 nM; in experiment [4] (setting [9]), 3780 nM; in experiment [5] (setting [10]), above 10000 nM; in experiment [6] (setting [11]), above 10000 nM.

As for `Cc1cc(C(C)Nc2ccccc2C(=O)O)c2nc(N3Cc4ccccc4C3)c(C)c(=O)n2c1` (stereo not drawn) [Example 5-9, 2-((1-(2-(isoindolin-2-yl)-3,7-dimethyl-4-oxo-4H-pyrido[1,2-a]pyrimidin-9-yl)ethyl)amino)benzoic acid], the IC50 in experiment [1] (setting [7]) is 21 nM; in experiment [2] (setting [8]), 3500 nM; in experiment [3], 683 nM; in experiment [4] (setting [9]), 430 nM; in experiment [5] (setting [10]), above 10000 nM; in experiment [6] (setting [11]), above 10000 nM.

On to `Cc1c(N2CCC(C)(C)CC2)nc2c(C(C)Nc3ccccc3C(=O)O)cccn2c1=O` (stereo not drawn) [Example 5-10, 2-((1-(2-(4,4-dimethylpiperidin-1-yl)-3-methyl-4-oxo-4H-pyrido[1,2-a]pyrimidin-9-yl)ethyl)amino)benzoic acid], for which the IC50 in experiment [1] (setting [7]) was 40.4 nM; in experiment [2] (setting [8]), above 10000 nM; in experiment [3] it was 6120 nM; in experiment [4] (setting [9]), 1800 nM; in experiment [5] (setting [10]), above 10000 nM; in experiment [6] (setting [11]), above 10000 nM.

Turning to `Cc1c(N2CCCCC2)nc2c(C(C)Nc3ccccc3C(=O)O)cccn2c1=O` (stereo not drawn) [Example 5-11, 2-((1-(3-methyl-4-oxo-2-(piperidin-1-yl)-4H-pyrido[1,2-a]pyrimidin-9-yl)ethyl)amino)benzoic acid], the IC50 in experiment [1] (setting [7]) is 10.9 nM; in experiment [2] (setting [8]), 3060 nM; in experiment [3], above 10000 nM; in experiment [4] (setting [9]), 731 nM; in experiment [5] (setting [10]), above 10000 nM; in experiment [6] (setting [11]), above 10000 nM.

For the molecule `Cc1cc(C(C)Nc2ccccc2C(=O)O)c2nc(C)cc(=O)n2c1` (stereo not drawn) [Example 6-1, 2-((1-(2,7-dimethyl-4-oxo-4H-pyrido[1,2-a]pyrimidin-9-yl)ethyl)amino)benzoic acid], the 50% inhibitory concentration (IC50) in experiment [1] (setting [12]) is 3370 nM; in experiment [2] (setting [13]), above 10000 nM; in experiment [3], above 10000 nM; in experiment [4] (setting [14]), above 10000 nM; in experiment [5] (setting [15]), above 10000 nM; in experiment [6] (setting [16]), above 10000 nM.

On to `Cc1cc(C(C)Nc2ccccc2C(=O)O)c2nc(-c3ccccc3)cc(=O)n2c1` (stereo not drawn) [Example 7-1, 2-((1-(7-methyl-4-oxo-2-phenyl-4H-pyrido[1,2-a]pyrimidin-9-yl)ethyl)amino)benzoic acid], for which the IC50 in experiment [1] (setting [12]) was 13.3 nM; in experiment [2] (setting [13]), 6420 nM; in experiment [3], 6650 nM; in experiment [4] (setting [14]) it was 3140 nM; in experiment [5] (setting [15]) it was above 10000 nM; in experiment [6] (setting [16]), above 10000 nM.

Regarding `Cc1cc(C(C)Nc2ccccc2C(=O)O)c2nc(N3CCCCC3)c(C#N)c(=O)n2c1` (stereo not drawn) [Example 8-1, 2-((1-(3-cyano-7-methyl-4-oxo-2-(piperidin-1-yl)-4H-pyrido[1,2-a]pyrimidin-9-yl)ethyl)amino)benzoic acid], the IC50 in experiment [1] (setting [7]) was 54 nM; in experiment [2] (setting [8]) it was 5540 nM; in experiment [3], 932 nM; in experiment [4] (setting [9]), 166 nM; in experiment [5] (setting [10]), 9680 nM; in experiment [6] (setting [11]) it was above 10000 nM.

Take `Cc1cc(C(C)Nc2ccccc2C(=O)O)c2nc(C3CCOCC3)cc(=O)n2c1` (stereo not drawn) [Example 9-1, 2-((1-(7-methyl-4-oxo-2-(tetrahydro-2H-pyran-4-yl)-4H-pyrido[1,2-a]pyrimidin-9-yl)ethyl)amino)benzoic acid]: the half-maximal inhibitory concentration (IC50) is 21.2 nM in experiment [1] (setting [7]); above 10000 nM in experiment [2] (setting [8]); above 10000 nM in experiment [3]; 2580 nM in experiment [4] (setting [9]); above 10000 nM in experiment [5] (setting [10]); above 10000 nM in experiment [6] (setting [11]).

On to `CC(Nc1ccccc1C(=O)O)c1cccn2c(=O)cc(N3CCC(C)(C)CC3)nc12` (stereo not drawn) [Example 9-2, 2-((1-(2-(4,4-dimethylpiperidin-1-yl)-4-oxo-4H-pyrido[1,2-a]pyrimidin-9-yl)ethyl)amino) benzoic acid], for which the half-inhibitory concentration (IC50) in experiment [1] (setting [7]) was 33.9 nM; in experiment [2] (setting [8]) it was above 10000 nM; in experiment [3], above 10000 nM; in experiment [4] (setting [9]), above 10000 nM; in experiment [5] (setting [10]), above 10000 nM; in experiment [6] (setting [11]), above 10000 nM.

In the case of `Cc1cc(C(C)Nc2ccccc2C(=O)O)c2nc(OCc3ccccc3)cc(=O)n2c1` (stereo not drawn) [Example 9-3, 2-((1-(2-(benzyloxy)-7-methyl-4-oxo-4H-pyrido[1,2-a]pyrimidin-9-yl)ethyl)amino)benzoic acid], the IC50 is 129 nM in experiment [1] (setting [7]); above 10000 nM in experiment [2] (setting [8]); above 10000 nM in experiment [3]; 4450 nM in experiment [4] (setting [9]); 3780 nM in experiment [5] (setting [10]); 4770 nM in experiment [6] (setting [11]).
